This is an account of results in paper PMC2762027, “Potencies of Cocaine Methiodide on Major Cocaine Targets in Mice” (PLoS ONE, 2009).

“Also recorded” adds a separate entry of the source. Like-named read-outs stand apart in the source and are kept apart here.

By IC50 is commonly meant the concentration at which inhibition is half-maximal.

In one assay the target is mouse DAT (Mus musculus, UniProt Q61327). Description: Dopamine uptake into HeLa cells transiently transfected with mDAT. In kind it is cell-based.
Chain of mouse DAT (Q61327 whole entry): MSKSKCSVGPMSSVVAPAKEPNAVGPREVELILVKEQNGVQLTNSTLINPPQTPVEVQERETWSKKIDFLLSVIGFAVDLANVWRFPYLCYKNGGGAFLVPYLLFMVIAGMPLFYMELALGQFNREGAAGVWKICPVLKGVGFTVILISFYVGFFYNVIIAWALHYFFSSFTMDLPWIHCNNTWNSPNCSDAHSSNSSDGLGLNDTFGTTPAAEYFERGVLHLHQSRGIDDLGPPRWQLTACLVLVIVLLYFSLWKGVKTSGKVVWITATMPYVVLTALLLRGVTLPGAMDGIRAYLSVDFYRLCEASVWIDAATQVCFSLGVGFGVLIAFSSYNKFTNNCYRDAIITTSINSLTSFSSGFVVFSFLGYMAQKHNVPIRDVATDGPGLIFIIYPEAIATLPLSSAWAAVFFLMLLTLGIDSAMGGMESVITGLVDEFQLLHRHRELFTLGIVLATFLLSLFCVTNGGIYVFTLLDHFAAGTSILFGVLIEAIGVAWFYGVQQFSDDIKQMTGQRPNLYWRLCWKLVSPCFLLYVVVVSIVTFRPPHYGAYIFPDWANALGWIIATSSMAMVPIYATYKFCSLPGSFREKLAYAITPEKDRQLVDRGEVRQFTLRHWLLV
The target in the next assay is mouse NET (Mus musculus, UniProt O55192). In words: Norepinephrine uptake into HeLa cells transiently transfected with mNET. Type of assay: cell-based.
Chain of mouse NET (O55192 whole entry): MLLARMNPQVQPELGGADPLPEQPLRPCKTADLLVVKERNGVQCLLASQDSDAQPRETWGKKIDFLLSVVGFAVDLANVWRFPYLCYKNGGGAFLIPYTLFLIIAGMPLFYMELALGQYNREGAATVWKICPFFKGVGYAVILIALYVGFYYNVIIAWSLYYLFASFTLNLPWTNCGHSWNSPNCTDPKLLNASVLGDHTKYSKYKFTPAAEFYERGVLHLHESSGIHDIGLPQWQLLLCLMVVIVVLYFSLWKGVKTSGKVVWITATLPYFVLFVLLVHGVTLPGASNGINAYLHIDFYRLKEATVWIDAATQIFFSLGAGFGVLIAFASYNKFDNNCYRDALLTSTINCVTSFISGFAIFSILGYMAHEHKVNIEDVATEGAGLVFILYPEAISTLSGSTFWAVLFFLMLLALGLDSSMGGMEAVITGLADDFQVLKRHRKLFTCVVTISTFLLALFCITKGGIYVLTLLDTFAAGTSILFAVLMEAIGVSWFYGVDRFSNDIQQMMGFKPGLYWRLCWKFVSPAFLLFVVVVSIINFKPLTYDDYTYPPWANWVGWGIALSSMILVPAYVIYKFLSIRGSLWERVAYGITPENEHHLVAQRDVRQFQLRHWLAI
Another assay addresses mouse SERT (Mus musculus, UniProt Q60857). Description: Serotonin uptake into HeLa cells transiently transfected with mSERT. In kind it is cell-based.
Assay [1] has as its target T1, dopamine uptake by striatal synaptosomes (Mus musculus, UniProt Q61327).
T1 construct: C57B6 mice (aged 6–8 weeks) were decapitated and striatum were dissected from both sides of the brain; from tissue; host or cells: striatal synaptosomes of C57B6 mice
In words: Dopamine reuptake into striatal synaptosomes. In kind it is biochemical. On the procedure:
All animal work was conducted in adherence to OSU IACUC approved protocols and guidelines for animal welfare. C57B6 mice (aged 6–8 weeks) were decapitated and striatum were dissected from both sides of the brain and stored on ice. The tissues were placed in ice-cold Krebs'-Ringer's solution buffer (KRB) (in mM: 125 NaCl, 1.2 KCl, 1.2 MgSO4, 1.2 CaCl2, 22 NaHCO3, 1 NaH2PO4, and 10 glucose, adjusted to pH 7.4) with an additional 0.32 M sucrose. Tissue samples were homogenized by using a glass homogenizing tube and with a Teflon-coated pestle. The samples were centrifuged for 10 min at 1,000xg. Supernatant was collected and the debris pellet was discarded. Supernatant was centrifuged for 15 min at 16,000x g. […] Amounts of [^3H]-labeled dopamine accumulated were quantitated by liquid-scintillation counting. All experiments were performed in triplicates. Synaptosomes with the highest dose of inhibitor were used as background controls and radioactivity associated with these wells were subtracted from the total scintillation counts of all wells.
The IC50 values were determined by nonlinear regression analyses of experimental data using GraphPad Prism 3.0 (San Diego, CA). IC50 values presented are averages ± standard error of means (SEM) calculated from 3 independent uptake experiments or recordings of 4 different DRG neurons. Statistical analyses for the difference between the IC50 values of the two drugs were performed by Student's paired t-test using SPSS 17.0 (Chicago, IL).

Another assay relates to DRG neuron Na+ channels. Description: Whole-cell voltage clamp recording of sodium channel currents in dorsal root ganglion neurons. Type of assay: cell-based, mouse. The following applies: for IC50: isolated mouse DRG neurons, whole-cell patch clamp, held at -70 mV, read-out: IC50, inhibition of DRG neuron Na+ channels. As for the experimental part: Dorsal root ganglion (DRG) neurons (T1–T10) from adult male C57B6 mice (aged 6–8 weeks) were isolated as per Malin et al. Briefly, ganglia were dissected under stereo microscope and washed in Ca^2+/Mg^2+-free Hank's Buffered Salt Solution (HBSS). DRGs were digested enzymatically, first with papain and then collagenase II and dispase II, each for 10 min at 37°C. Digested DRGs were then triturated in culture media (F-12 supplemented with 10% FBS and 5 mg/ml penicillin/streptomycin) by a fire-polished Pasteur pipette until solution becomes cloudy. Isolated DRG neurons were plated on poly-ornithine coated glass cover slips and maintained in a 37°C, 5% CO2 incubator. Individual DRG neurons were recorded after overnight culture.
Plated coverslips were centered in a perfusion chamber filled with extracellular solution (ECS) containing (in mM): 140 NaCl, 5 KCl, 2 CaCl2, 1 MgCl2, 10 glucose, 10 HEPES, pH 7.4. Cocaine and CM were dissolved in ECS and delivered via a pressure-driven perfusion system (SmartSquirt 8, AutoMate Scientific) with the tip positioned so the DRG neuron being recorded was fully within the direct stream of perfusate. Recording pipettes were pulled from micropipette glass (World Precision Instruments, Sarasota FL) to 2–4 MΩ when filled with an intracellular solution containing (in mM): 140 […], 1 CaCl2, 2 MgCl2, 11 EGTA, 10 HEPES, 2 Mg2ATP, pH 7.2). Whole-cell recordings were made using an EPC10 amplifier and the PatchMaster 2.2.0 software (both from HEKA Electronik, Germany). As soon as the whole-cell configuration was established, fast and slow capacitances were cancelled and the holding potential (Vh) was set to -70 mV. A step protocol ([…] from −70 mV to 10 mV with 5 mV increment for each step) was applied to determine the testing voltage (Vt) that generated the maximal inward current in the following experiment. […] Only one cell per cover slip was recorded to avoid possible drug contamination of other cells. […]
A range of drug concentrations, starting from low to high, were tested for each DRG neuron. The sodium channel currents were recorded 30 s before the drug application, during the 30 s drug application, and 30–60 s after drug washout by perfusion with ECS. For each set of tests, current amplitude was measured by subtracting the baseline value from the peak current. […] The currents measured after the drug washout were used to confirm the complete recovery before testing the next drug concentration.
The IC50 values were determined by nonlinear regression analyses of experimental data using GraphPad Prism 3.0 (San Diego, CA). IC50 values presented are averages ± standard error of means (SEM) calculated from 3 independent uptake experiments or recordings of 4 different DRG neurons. […]
In general terms: In patch-clamp work, channel activity is measured electrically.

Another assay concerns sodium channels. The arrangement: method as in PMID 16406254. The following applies: cited from earlier work.

T1 sequence (Q61327 whole entry): as the sequence (Q61327 whole entry) above
Chain of mouse SERT (Q60857 whole entry): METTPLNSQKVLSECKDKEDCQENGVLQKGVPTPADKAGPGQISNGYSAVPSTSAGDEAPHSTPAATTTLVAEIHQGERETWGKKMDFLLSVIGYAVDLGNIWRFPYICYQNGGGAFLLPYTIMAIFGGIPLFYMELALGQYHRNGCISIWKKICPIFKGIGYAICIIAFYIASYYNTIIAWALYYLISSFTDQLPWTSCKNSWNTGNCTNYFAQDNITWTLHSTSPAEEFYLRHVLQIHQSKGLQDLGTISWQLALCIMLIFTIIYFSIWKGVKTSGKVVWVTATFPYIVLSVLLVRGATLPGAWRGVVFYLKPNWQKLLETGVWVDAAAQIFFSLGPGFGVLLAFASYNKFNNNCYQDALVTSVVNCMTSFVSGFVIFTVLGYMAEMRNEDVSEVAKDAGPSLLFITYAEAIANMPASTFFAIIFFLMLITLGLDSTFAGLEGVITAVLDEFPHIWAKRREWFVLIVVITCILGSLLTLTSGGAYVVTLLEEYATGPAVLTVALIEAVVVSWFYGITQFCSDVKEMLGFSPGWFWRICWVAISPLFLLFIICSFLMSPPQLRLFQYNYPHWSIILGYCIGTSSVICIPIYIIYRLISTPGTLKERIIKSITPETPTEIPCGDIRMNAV

For `COC(=O)[C@H]1[C@@H](OC(=O)c2ccccc2)C[C@@H]2CC[C@H]1[N+]2(C)C.[I-]` [Cocaine Methiodide, Cocaine methiodide], the “ratio of IC50 values, cocaine methiodide / cocaine, mDAT” value at mouse DAT (transfected HeLa cells) was 184 fold. The concentration for half-maximal inhibition (IC50) on mouse DAT (transfected HeLa cells, 60 nM [3H] substrate, mean ± SEM, 3 experiments, read-out: IC50, inhibition of dopamine uptake by mDAT) turned out to be 83.2 ± 2.1 µM; on mouse NET (transfected HeLa cells, 60 nM [3H] substrate, mean ± SEM, 3 experiments, read-out: IC50, inhibition of norepinephrine uptake by mNET), 20.9 ± 3.1 µM; at mouse SERT (transfected HeLa cells, 60 nM [3H] substrate, mean ± SEM, 3 experiments, read-out: IC50, inhibition of serotonin uptake by mSERT), 84.3 ± 4.8 µM; in assay [1] (mouse striatum synaptosomes, 60 nM [3H]dopamine, 100 µM desipramine, mean ± SEM, 3 experiments, listed as CM, read-out: IC50, inhibition of dopamine uptake by striatal synaptosomes), 11.7 ± 5.1 µM; in assay [1] (mouse striatum synaptosomes, 60 nM [3H]dopamine, 100 µM desipramine, mean ± SEM, 3 experiments, read-out: IC50, inhibition of dopamine uptake by striatal synaptosomes), 11.5 ± 5.1 µM. Further, the “ratio of IC50 values, cocaine methiodide / cocaine, mNET” value on mouse NET (transfected HeLa cells) was 31 fold. Moreover, the “ratio of IC50 values, cocaine methiodide / cocaine, mSERT” value on mouse SERT (transfected HeLa cells) amounted to 123 fold. The “ratio of IC50 values, cocaine methiodide / cocaine, striatal synaptosomes” value in assay [1] (dopamine uptake, mouse striatal synaptosomes) amounted to 33 fold. The “effect on sodium channel currents (peak inward current) in DRG neurons” value in the assay with DRG neuron Na+ channels (concentrations up to 3 mM, the highest tested, n = 4 cells, p>0.05, listed as CM) is listed as “very little inhibition; also recorded: no observable effect; also recorded: little observable effect; also recorded: does not inhibit”.
Consider `COC(=O)[C@H]1[C@@H](OC(=O)c2ccccc2)C[C@@H]2CC[C@H]1N2C` [Cocaine], for which the IC50 worked out at 0.45 ± 0.11 µM against mouse DAT; 0.67 ± 0.09 µM against mouse NET; 0.68 ± 0.39 µM against mouse SERT; 0.35 ± 0.11 µM in assay [1]; 85 µM in the assay on DRG neuron Na+ channels (n = 4 cells, listed as cocaine); 84.8 ± 5.9 µM in the assay on DRG neuron Na+ channels (n = 4 cells). Further, the “sodium channel IC50 relative to those for the monoamine transporters” value in the assay with DRG neuron Na+ channels (cocaine, DRG Na+ channels vs DAT, NET, SERT) was “roughly 100 fold”. The “potency for blocking sodium channels” value in the assay with sodium channels was at least 50 µM.
